The target of the assay is T1, 17β-hydroxysteroid dehydrogenase type 1 (17β-HSD1) (Homo sapiens, UniProt P14061).
T1 construct: gene HSD17B1
T1 sequence (P14061 2-328): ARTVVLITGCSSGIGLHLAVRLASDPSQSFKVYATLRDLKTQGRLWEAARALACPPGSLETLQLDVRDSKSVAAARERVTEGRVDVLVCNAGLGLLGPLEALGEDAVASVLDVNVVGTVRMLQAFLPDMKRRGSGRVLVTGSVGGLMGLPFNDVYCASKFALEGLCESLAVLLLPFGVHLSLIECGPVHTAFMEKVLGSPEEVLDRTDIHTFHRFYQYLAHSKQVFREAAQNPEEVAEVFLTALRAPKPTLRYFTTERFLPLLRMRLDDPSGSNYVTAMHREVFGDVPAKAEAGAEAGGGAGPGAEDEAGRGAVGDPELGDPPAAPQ
Put plainly: inhibition of […]-DHEA to […]-5-diol conversion in intact T-47D cells (endogenous […]β-HSD1), TLC. Format: cell-based.

Molecules are shown by their SMILES.

`C[C@]12CC[C@@H]3c4ccc(CCBr)cc4CC[C@H]3[C@@H]1C[C@H](Cc1cccc(C(N)=O)c1)[C@@H]2O` [PBRM]: 770 nM corresponded to half-maximal inhibition (IC50).

The values are drawn from paper PMC8069897, “A Targeted-Covalent Inhibitor of 17β-HSD1 Blocks Two Estrogen-Biosynthesis Pathways: In Vitro (Metabolism) and In Vivo (Xenograft) Studies in T-47D Breast Cancer Models” (Cancers, 2021).
